Assay results as given in US12370161B2, “Composition for treating atopy or pruritus comprising N-acetyl or N-acyl amino acid” (STEMDR INC., priority 2017, dated 2025).
“Also recorded” adds a separate entry of the source.

Experiments:
[1] = tested on: atopic dermatitis-induced Balb/c mouse; experiment: SCORAD clinical skin score, DNFB-induced atopic dermatitis in Balb/c mouse; format: in vivo; parameters: key to Mouse 1 Sum / Mean (of Sum, SCORAD) / Mouse 2 Sum / Mouse 3 Sum: sum of symptom grades, each 0 (none) to 3 (severe); settings: for skin-soothing and atopic dermatitis-treating effect (SCORAD, Table 1, FIG. 2A): Balb/c atopic dermatitis model, 0.1% topical, P<0.05 versus DNFB group; for apparent degree of dermatitis (back skin images, FIG. 2B): Balb/c, treated for 7 days, day 29; for Mouse 1 Erythema / Mouse 1 Abrasion / Mouse 1 Dryness / Mouse 1 Edema / Mouse 1 Eschar / Mouse 1 Lichenification / Mouse 1 Sum / Mouse 2 Abrasion / Mouse 2 Dryness / Mouse 2 Edema / Mouse 2 Erythema / Mouse 2 Eschar / Mouse 2 Lichenification / Mouse 2 Sum / Mouse 3 Abrasion / Mouse 3 Dryness / Mouse 3 Edema / Mouse 3 Erythema / Mouse 3 Eschar / Mouse 3 Lichenification / Mouse 3 Sum / Mean (of Sum, SCORAD): DNFB Balb/c; for Mouse 1 Erythema: 0.1% in PBS, 200 μL on back skin daily day 22-28, grade 0-3 (0 no symptom, 1 mild, 2 moderate, 3 severe); for Mouse 1 Abrasion / Mouse 1 Dryness / Mouse 1 Edema / Mouse 1 Eschar / Mouse 1 Lichenification / Mouse 1 Sum / Mouse 2 Abrasion / Mouse 2 Dryness / Mouse 2 Edema / Mouse 2 Erythema / Mouse 2 Eschar / Mouse 2 Lichenification / Mouse 2 Sum / Mouse 3 Abrasion / Mouse 3 Dryness / Mouse 3 Edema / Mouse 3 Erythema / Mouse 3 Eschar / Mouse 3 Lichenification / Mouse 3 Sum / Mean (of Sum, SCORAD): 0.1% topical day 22-28; for Mouse 1 Abrasion / Mouse 1 Dryness / Mouse 1 Edema / Mouse 1 Eschar / Mouse 1 Lichenification / Mouse 2 Abrasion / Mouse 2 Dryness / Mouse 2 Edema / Mouse 2 Erythema / Mouse 2 Eschar / Mouse 2 Lichenification / Mouse 3 Abrasion / Mouse 3 Dryness / Mouse 3 Edema / Mouse 3 Erythema / Mouse 3 Eschar / Mouse 3 Lichenification: grade 0-3; for Mouse 1 Sum / Mouse 2 Sum / Mouse 3 Sum: overall dermatitis score, sum of individual scores; for Mean (of Sum, SCORAD): mean of 3 mice
In short: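 Mice sensitized with 0.35% DNFB on shaved back, then challenged with 0.25% DNFB on days 6–27; 0.1% N-acetyl/N-acylamino acid in PBS applied topically daily days 22–28, 12 h apart from DNFB. Blinded SCORAD: six symptoms each graded 0–3, summed.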

[2] = tested on: atopic dermatitis-induced Nc/Nga mouse; experiment: SCORAD clinical skin score, DNFB-induced atopic dermatitis in Nc/Nga mouse; format: in vivo; settings: for atopic dermatitis-treating effect (SCORAD, FIG. 3A) / dermatitis-treating effect of L-, L/D- and D-form (FIG. 6): Nc/Nga atopic dermatitis model; for atopic dermatitis-treating effect (SCORAD, FIG. 3A): 0.1% topical; for dermatitis-treating effect of L-, L/D- and D-form (FIG. 6): 0.1%; for effect in Nc/Nga model (back skin images, FIG. 3B): treated for 7 days, day 22
Protocol: In order to establish a model more similar to an atopy model than that of the Balb/c mice, atopy was induced in Nc/Nga mouse mice. Specifically, after inducing DNFB sensitization by applying 100 μL of 0.35% 2,4-dinitrofluorobenzene (DNFB) in acetone/olive oil (3:1) on the shaved back skin, dermatitis was induced by applying 100 μL of 0.15% DNFB for 4-20 days, every other day. Control mice were treated with a vehicle of the same volume (FIG. 1B).
After dissolving an N-acetyl or N-acylamino acid in phosphate-buffered saline to 0.1%, 200 μL of the solution was applied on the back skin of the mice every day, from day 22 until day 28 for the Balb/c atopic dermatitis model, and from day 15 until day 21 for the Nc/Nga atopic dermatitis model. When the N-acetyl or N-acylamino acid was treated together with DNFB, they were treated with 12-hour intervals in order to avoid direct reaction between the DNFB and the N-acetyl or N-acylamino acid. A non-treated group and a 2,4-dinitrofluorobenzene (DNFB) group were treated with phosphate-buffered saline of the same volume (FIGS. 1A-1B). As the N-acetylamino acid, products purchased from Sigma-Aldrich (USA), MP scientific (USA), TCI (Tokyo Chemical Industry, Japan), Santacruz (USA), etc. were used without purification.
The degree of skin soothing and the severity of atopic dermatitis were evaluated macroscopically according to the previously established SCORAD (SCORing Atopic Dermatitis) method (Oranje et al., 2007). The degree of symptoms such as edema, erythema, eschar, dryness, abrasion, lichenification, etc. was graded from 0 to 3 (0, no symptom; 1, mild; 2, moderate; 3, severe). The overall dermatitis score was determined from the sum of all individual scores (Table 1). The assessment was performed by an investigator who was blind to the grouping of the mice.
Skin-soothing effect and the severity of dermatitis were evaluated for the acyl derivatives of tryptophan synthesized in Example 9, the acyl derivative of alanine synthesized in Example 10 and N-palmitoylalanine (purchased from Santacruz (USA)) according to the method of Example 4 (Table 2)

[3] = tested on: atopic dermatitis-induced Nc/Nga mouse; experiment: Hematoxylin/eosin staining of back skin tissue, epidermal and dermal thickness; format: in vivo; settings: 5 μm slices
From the text: After extracting back skin tissues of the atopic dermatitis-induced and drug-treated Nc/Nga mice of Example 2, the tissues were fixed with an Accustain formalin-free fixative solution and then prepared into paraffin blocks. The paraffin blocks were sliced to a thickness of 5 μm and the change in the thickness of the epidermal and dermal layers was observed by staining with hematoxylin/eosin.

[4] = tested on: IgE; experiment: Serum IgE level by ELISA, Balb/c; format: in vivo, mouse; settings: atopy-induced Balb/c mice
Protocol: (§1) After treatment with the test substance, the mice were sacrificed and blood was taken from the heart. After isolating serum from the blood, IgE level was measured. Specifically, after attaching antibodies diluted in a buffer solution onto a 96-well plate and incubating overnight at 4° C., experiment was conducted using an IgE ELISA kit (BD Biosciences, San Diego, CA) according to the provided manual. The quantity of the IgE protein was determined by measuring absorbance at 450 nm using a microplate reader.

[5] = tested on: IgE; experiment: Serum IgE level by ELISA, Nc/Nga; format: in vivo, mouse; settings: atopy-induced Nc/Nga mice
Protocol: as §1

[6] = tested on: IL4; experiment: IL4 mRNA in skin tissue by quantitative real-time PCR, Balb/c; format: in vivo, mouse; settings: atopy-induced Balb/c mice, normalized to β-actin
Protocol: (§2) After isolating total RNA from the atopy-induced skin tissue using 500 μL of Trizol (Life Technologies, USA) according to the manufacturer's protocol and synthesizing cDNA using the Superscript III reverse transcriptase (Life Technologies, USA), real-time PCR was conducted by reacting with the primers of IL4 and interferon γ to be analyzed. The real-time PCR was conducted on a StepOne Plus PCR cycler (Applied Biosystems) using SYBR Green (Applied Biosystems, Foster City, CA). The mRNA expression data were analyzed by the ΔΔCT method and were normalized to β-actin for gene detection. The primers necessary for the real-time PCR were purchased from Qiagen (USA). […] IL4 is known to induce TH2 response and interferon γ is known to induce TH1 response.

[7] = tested on: interferon γ; experiment: Interferon γ mRNA in skin tissue by quantitative real-time PCR, Balb/c; format: in vivo, mouse; settings: atopy-induced Balb/c mice, normalized to β-actin
Protocol: as §2

[8] = tested on: IL4; experiment: IL4 mRNA in skin tissue by quantitative real-time PCR, Nc/Nga; format: in vivo, mouse; settings: atopy-induced Nc/Nga mice, normalized to β-actin
Protocol: as §2

[9] = tested on: interferon γ; experiment: Interferon γ mRNA in skin tissue by quantitative real-time PCR, Nc/Nga; format: in vivo, mouse; settings: atopy-induced Nc/Nga mice, normalized to β-actin
Protocol: as §2

[10] = tested on: pruritus caused by atopic contact dermatitis; experiment: Pruritus inhibition test, pruritus induced with DNFB; format: in vivo, mouse; settings: 0.1% in physiological saline applied once onto right ear, pruritus measured for 1 hour
Protocol: In order to investigate whether L-form, LID-form and D-form N-acetylalanine, N-acetylarginine, N-acetylthreonine and N-acetyltryptophan inhibit pruritus caused by atopic contact dermatitis, 20 μL of 0.1% 2,4-dinitrofluorobenzene (DNFB) solution and 0.1% N-acetylamino acid dissolved in physiological saline were applied once onto the right ear 10 minutes after the final treatment (day 27) with 2,4-dinitrofluorobenzene (DNFB) (Physiological saline was applied to a negative control group), and then pruritus was measured for 1 hour. FIG. 7 compares the pruritus-relieving effect of L-form N-acetylalanine, N-acetylthreonine, N-acetylarginine and N-acetyltryptophan with D/L-form and D-form N-acetylalanine and N-acetyltryptophan at 0.1% after the induction of pruritus with DNFB.

[11] = listed as L-form N-acetylalanine
[12] = listed as L-form N-acetyltryptophan

CC(=O)N[C@@H](C)C(=O)O [N-acetyl-L-alanine]
skin-soothing and atopic dermatitis-treating effect (SCORAD, Table 1, FIG. 2A) [1]: significant skin-soothing and atopic dermatitis-treating effects; also recorded: significant atopic dermatitis-treating effect | apparent degree of dermatitis (back skin images, FIG. 2B) [1]: decreased remarkably | Mouse 1 Erythema [1]: 1 | Mouse 1 Abrasion [1]: 1 | Mouse 1 Dryness [1]: 2 | Mouse 1 Edema [1]: 1 | Mouse 1 Eschar [1]: 1 | Mouse 1 Lichenification [1]: 0 | Mouse 1 Sum [1]: 6 | Mouse 2 Abrasion [1]: 1 | Mouse 2 Dryness [1]: 0 | Mouse 2 Edema [1]: 1 | Mouse 2 Erythema [1]: 1 | Mouse 2 Eschar [1]: 1 | Mouse 2 Lichenification [1]: 0 | Mouse 2 Sum [1]: 4 | Mouse 3 Abrasion [1]: 1 | Mouse 3 Dryness [1]: 0 | Mouse 3 Edema [1]: 1 | Mouse 3 Erythema [1]: 1 | Mouse 3 Eschar [1]: 1 | Mouse 3 Lichenification [1]: 1 | Mouse 3 Sum [1]: 5 | Mean (of Sum, SCORAD) [1]: 5 | atopic dermatitis-treating effect (SCORAD, FIG. 3A) [2]: showed atopic dermatitis-treating effect | dermatitis-treating effect of L-, L/D- and D-form (FIG. 6) [2, 11]: remarkable effect | effect in Nc/Nga model (back skin images, FIG. 3B) [2]: remarkable effect | thickness of the epidermal and dermal layers (FIG. 3C) [3]: significantly decreased | serum IgE level (FIG. 4A) [4]: significant decrease | serum IgE level (FIG. 4B) [5]: significant decrease | level of IL4 in the skin tissue (FIG. 5A) [6]: significantly decreased | level of interferon γ in the skin tissue (FIG. 5A) [7]: significantly decreased | level of IL4 in the skin tissue (FIG. 5B) [8]: significantly decreased | level of interferon γ in the skin tissue (FIG. 5B) [9]: significantly decreased | pruritus-relieving effect (FIG. 7) [10, 11]: significantly inhibited pruritus

CC(=O)N[C@@H](Cc1c[nH]c2ccccc12)C(=O)O [N-acetyl-L-tryptophan]
skin-soothing and atopic dermatitis-treating effect (SCORAD, Table 1, FIG. 2A) [1]: significant skin-soothing and atopic dermatitis-treating effects; also recorded: significant atopic dermatitis-treating effect | apparent degree of dermatitis (back skin images, FIG. 2B) [1]: decreased remarkably | Mouse 1 Erythema [1]: 1 | Mouse 1 Abrasion [1]: 1 | Mouse 1 Dryness [1]: 0 | Mouse 1 Edema [1]: 1 | Mouse 1 Eschar [1]: 1 | Mouse 1 Lichenification [1]: 1 | Mouse 1 Sum [1]: 5 | Mouse 2 Abrasion [1]: 0 | Mouse 2 Dryness [1]: 1 | Mouse 2 Edema [1]: 1 | Mouse 2 Erythema [1]: 0 | Mouse 2 Eschar [1]: 1 | Mouse 2 Lichenification [1]: 0 | Mouse 2 Sum [1]: 3 | Mouse 3 Abrasion [1]: 2 | Mouse 3 Dryness [1]: 0 | Mouse 3 Edema [1]: 0 | Mouse 3 Erythema [1]: 0 | Mouse 3 Eschar [1]: 2 | Mouse 3 Lichenification [1]: 0 | Mouse 3 Sum [1]: 4 | Mean (of Sum, SCORAD) [1]: 4 | atopic dermatitis-treating effect (SCORAD, FIG. 3A) [2]: showed atopic dermatitis-treating effect | dermatitis-treating effect of L-, L/D- and D-form (FIG. 6) [2, 12]: remarkable effect | effect in Nc/Nga model (back skin images, FIG. 3B) [2]: remarkable effect | thickness of the epidermal and dermal layers (FIG. 3C) [3]: significantly decreased | serum IgE level (FIG. 4A) [4]: significant decrease | serum IgE level (FIG. 4B) [5]: significant decrease | level of IL4 in the skin tissue (FIG. 5A) [6]: significantly decreased | level of interferon γ in the skin tissue (FIG. 5A) [7]: significantly decreased | level of IL4 in the skin tissue (FIG. 5B) [8]: significantly decreased | level of interferon γ in the skin tissue (FIG. 5B) [9]: significantly decreased | pruritus-relieving effect (FIG. 7) [10, 12]: significantly inhibited pruritus
